# Test results reported in patent publication US12408666B2, “Pyridyloxy carboxylate derivative, preparation method therefor, herbicidal composition and use thereof” (priority 2018, dated 2025).
# Experiments:
# Cyperus iria = experiment: Post-emergence test, ALS-resistant weed (Table 4); format: in vivo; details: 504 h, 3 weeks, resistant to ALS inhibitor herbicides, read-out: Cyperus iria, activity level (growth inhibition rate)
# Experimental: (§1) Post-emergence test experiment: Monocotyledonous and dicotyledonous weed seeds and main crop seeds (i. e. wheat, corn, rice, soybean, cotton, oilseed, millet and sorghum.) were put into a plastic pot loaded with soil. Then covered with 0.5-2 cm soil, the seeds were allowed to grow in good greenhouse environment. The test plants were treated at 2-3 leaf stage 2 weeks after sowing. The test compounds of the invention were dissolved with acetone respectively, then added with tween-80, and using 1.5 liters per hectare of an emulsible concentrate of methyl oleate as a synergist, and diluted by certain amount of water to certain concentration. The solution was sprayed to the plants with a sprayer. Then the plants were cultured for 3 weeks in the greenhouse, and the experiment result of weed controlling effect after 3 weeks was listed in tables 3-4.
# (§2) Note: the application dose was active ingredient 600 g/ha, plus water 450 kg/ha. Echinochloa crusgalli and Cyperus iria were collected from Hunan province of China, and were resistant to ALS inhibitor herbicides.
# Echinochloa crusgalli = experiment: Post-emergence test, ALS-resistant weed (Table 4); format: in vivo; details: Echinochloa crus-galli, 504 h, 3 weeks, resistant to ALS inhibitor herbicides, read-out: Echinochloa crusgalli, activity level (growth inhibition rate)
# Experimental: as §1, §2
# Indica rice = experiment: Post-emergence test, crop safety (Table 4); format: in vivo; details: 3 weeks after treatment
# Experimental: as §1
# (§3) […] Echinochloa crusgalli and Cyperus iria were collected from Hunan province of China, and were resistant to ALS inhibitor herbicides.
# Japonica rice = experiment: Post-emergence test, crop safety (Table 4); format: in vivo; details: 3 weeks after treatment
# Experimental: as §1, §3
# rice = details: known compound; cited from earlier work
# Monochoria vaginalis = experiment: Weed control effect evaluation in rice field; format: in vivo; details: paddy pot, 50 g/ha, 14 days after treatment, resistant to pyrazosulfuron-ethyl and penoxsulam
# Experimental: Rice field soil was loaded into a 1/1,000,000 ha pot. The seeds of Monochoria vaginalis were sowed and gently covered with soil, then left to stand still in greenhouse in the state of 0.5-1 cm of water storage. It was kept at 3-4 cm of water storage thereafter. The weeds were treated by dripping the WP or SC water diluents prepared according to the common preparation method of the compounds of the present invention with pipette homogeneously to achieve specified effective amount when Monochoria vaginalis reached 0.5 leaf stage.
# The fertility condition of Monochoria vaginalis 14 days and rice 21 days after the treatment of the compound of the invention with the naked eye.
# Note: The seeds of Monochoria vaginalis were collected from Heilongjing Province of China.
# [1] = system: Echinochloa crusgalli, Digitaria sanguinalis, Leptochloa chinensis and Setaria viridis; details: commercial product; cited from earlier work
# Soybean = experiment: Spray drift test by unmanned gyroplane, neighbouring soybean field; format: in vivo; details: 600 g/ha applied by unmanned gyroplane, soybean field at 10 meters, gentle breeze
# Experimental: Broadleaf crops are very sensitive to hormonal herbicides, therefore crop injuries are more likely to occur in case of spray drifting. Tests were conducted in gentle breeze for the compounds of the present invention. The formulation of the compounds of the present invention was applied by DJI unmanned gyroplane with application height of 1 m and water volume of 20 kg/ha. The use rate was 600 g/ha. The active ingredient was dissolved by acetone and diluted to aqueous solution of Tween 80. There's a soybean field at 10 meters from the application area and the height of soybean plants were about 15 cm at the application time.
smiles,measurement,setting,value
CC(Oc1nc(F)c(Cl)c(N)c1Cl)C(=O)O (centres unmarked) [Control compound A],inhibition at 300 g/ha,Cyperus iria; 300 g/ha,60 to 85%
same,inhibition at 600 g/ha,Cyperus iria,> 85%
same,inhibition at 300 g/ha,Echinochloa crusgalli; 300 g/ha,60 to 85%
same,inhibition at 600 g/ha,Echinochloa crusgalli,> 85%
same,"Indica rice, activity level (growth inhibition rate)",Indica rice; 300 g/ha,3 (Level 3: the growth inhibition rate is equal to or greater than 40% and less than 60%)
same,"Indica rice, activity level (growth inhibition rate)",Indica rice; 600 g/ha,3 (Level 3: the growth inhibition rate is equal to or greater than 40% and less than 60%)
same,"Japonica rice, activity level (growth inhibition rate)",Japonica rice; 300 g/ha,2 (Level 2: the growth inhibition rate is equal to or greater than 20% and less than 40%)
same,"Japonica rice, activity level (growth inhibition rate)",Japonica rice; 600 g/ha,3 (Level 3: the growth inhibition rate is equal to or greater than 40% and less than 60%)
same,Safety and selectivity,rice,poor safety and low selectivity
COc1cnc(OC)n2nc(NS(=O)(=O)c3c(OCC(F)F)cccc3C(F)(F)F)nc12 [Penoxsulam],"Monochoria Vaginalis, activity level",Monochoria vaginalis,1 (Level 1: the growth inhibition rate is equal to or greater than 5% and less than 20%)
CCCCOCC(C)OC(=O)COc1nc(F)c(Cl)c(N)c1Cl (centres unmarked) [Control compound B],inhibition at 600 g/ha,Cyperus iria,40 to 60%
same,inhibition at 600 g/ha,Echinochloa crusgalli,20 to 40%
same,"Indica rice, activity level (growth inhibition rate)",Indica rice; 600 g/ha,2 (Level 2: the growth inhibition rate is equal to or greater than 20% and less than 40%)
same,"Japonica rice, activity level (growth inhibition rate)",Japonica rice; 600 g/ha,2 (Level 2: the growth inhibition rate is equal to or greater than 20% and less than 40%)
same,Efficacy on key grasses in rice,[1],very poor
CCOC(=O)C(C)Oc1nc(F)c(Cl)c(N)c1Cl (centres unmarked) [Control compound C],"Soybean, injury level from spray drift",Soybean,3 (Level 3: the growth inhibition rate is equal to or greater than 40% and less than 60%)
COc1cc(OC)nc(Oc2cccc(Oc3nc(OC)cc(OC)n3)c2C(=O)O)n1 [Bispyribac-sodium],inhibition at 100 g/ha,Cyperus iria; 100 g/ha,20 to 40%
same,inhibition at 100 g/ha,Echinochloa crusgalli; 100 g/ha,5 to 20%
same,"Indica rice, activity level (growth inhibition rate)",Indica rice; 100 g/ha,2 (Level 2: the growth inhibition rate is equal to or greater than 20% and less than 40%)
same,"Japonica rice, activity level (growth inhibition rate)",Japonica rice; 100 g/ha,4 (Level 4: the growth inhibition rate is equal to or greater than 60% and less than 85%)
